Results taken from US9199975B2, “Biaryl imidazole derivatives for regulating CYP17” (Asana Biosciences, LLC, priority 2011, dated 2015).

Molecular target: T1, rat CYP17 (Rattus norvegicus, UniProt P11715)
T1 construct: Rat testis tissue was collected and disrupted with 30 strokes of a glass homogenizer; from tissue; host or cells: rat testis (microsomal fraction)
T1 sequence (P11715 1-507): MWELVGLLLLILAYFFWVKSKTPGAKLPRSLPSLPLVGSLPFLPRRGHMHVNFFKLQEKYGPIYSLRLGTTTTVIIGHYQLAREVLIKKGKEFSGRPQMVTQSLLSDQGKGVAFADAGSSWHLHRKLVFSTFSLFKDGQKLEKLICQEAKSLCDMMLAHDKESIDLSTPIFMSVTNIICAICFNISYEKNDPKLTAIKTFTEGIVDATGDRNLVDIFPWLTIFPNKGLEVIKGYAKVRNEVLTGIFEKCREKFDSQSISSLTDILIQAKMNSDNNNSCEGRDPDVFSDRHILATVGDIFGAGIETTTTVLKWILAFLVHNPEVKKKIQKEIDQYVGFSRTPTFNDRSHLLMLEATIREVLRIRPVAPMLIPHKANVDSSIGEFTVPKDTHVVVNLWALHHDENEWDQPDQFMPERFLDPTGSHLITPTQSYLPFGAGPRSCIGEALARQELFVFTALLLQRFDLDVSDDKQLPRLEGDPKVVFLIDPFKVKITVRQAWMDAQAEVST
Assay: CYP17 inhibition assay in rat testicular microsomes
Type: biochemical
Conditions: 3H3-17α-hydroxypregnenolone substrate, 60 minutes at 37° C.
Description: CYP17 Inhibition Assay in Rat Testicular Microsomes (Rat CYP17) or Yeast Microsome Overexpressing Human CYP17
A. Materials • 1. NADPH (Sigma): A working stock was prepared by adding 25 μL of 6.5 mM NADPH in each tube. The final concentration of NADPH used in the assay was 325 μM. • 2. Potassium Phosphate Buffer: One molar (1M) solutions of K2HPO4 and KH2PO4 were prepared. Eight mL of the 1 M KH2PO4 and 1.98 mL of the 1 M K2HPO4 were combined and the pH was adjusted to 7.4. • 3. ^3H3-17α-hydroxypregnenolone (American Radiolabeled Chemicals, Inc., stock 1 μCi/μL): A 1:1 dilution of ^3H3-17α-hydroxypregnenolone in ethanol was prepared by combining 100 μL ^3H3-17α-hydroxypregnenolone+100 μL ethanol for one complete 96 well plate. For the reaction, 2 μL of the diluted ^3H3-17α-hydroxypregnenolone was added in each tube, i.e., 1 μCi/reaction. • 4. Microsome Isolation Buffer: The microsome isolation buffer was prepared by combining 250 mM Sucrose, 5 mM EDTA, 10 mM Tris HCl, 4 mM DTT, and adjusting to pH 7.4. • 5. TEG Buffer: The TEG buffer was prepared by combining 50 mM Tris HCl, 1 mM EDTA, and 20% Glycerol. • 6. Rat Testicular Microsomes: Rat testis tissue was collected and disrupted with 30 strokes of a glass homogenizer on ice with 250 μL of microsome isolation buffer, followed by centrifugation at 10,000 g for 10 minutes at 4° C. The supernatant was collected and centrifuged at 100,000 g for 45 minutes at 4° C. The pellet was dissolved in TEG Buffer and the protein was quantified. The homogenized microsome samples were then frozen at −80° C. • 7. Yeast Microsomes which overexpress the human CYP17 enzyme were obtained from Premas Biotech, India.
Potassium phosphate buffer (470 μL) was prepared as described above and was added to each well of a deep well plate. The test compound was diluted using a TECAN liquid handler and 5 μL of diluted compound was transferred to each well (96 deep well/1 mL). A solution (25 μL) of 6.5 mM NADPH was added (final concentration of 325 µM in the assay). ^3H3-17α-hydroxypregnenolone (2 μL of the working stock) was added to each tube. The plates were then pre-incubated for 15 minutes at 37° C. Following the pre-incubation, either 5 μL rat testicular microsomes (150-160 μg) or 5 μL of yeast microsomes expressing human CYP17 (1.7 pmol), was added. Incubation was at 37° C. for 60 minutes in the presence of oxygen. The plates were then placed in ice and chloroform (500 μL) was added, mixed well and incubated at 4° C. for 20 minutes. The plates were then centrifuged at 1000 rpm for 15 minutes at 4° C.
A portion (300 μL) of the aqueous solution was collected and mixed with a 5% aqueous suspension of activated charcoal (300 μL). The plates were then incubated at 4° C. for 30 minutes, after which the plates were centrifuged at 1000 rpm for 15 minutes at 4° C. From this, 125 μL of the aqueous solution was collected and plated into a 96 well plate. Microscint™ 40 [125 μL, Perkin-Elmer; containing a mixture of a polymer based on alkylphenolethoxylate (20-40%), diethanolamine-phosphoric acid ester ammonium salt (10-20%), sodium dioctyl sulphosuccinate (2.5-10%), triethyl phosphate (2.5-10%), 3,6-dimethyl-4-octyne-3,6-diol (≦2.5%), a polymer based on nonylphenolethoxylate (≦2.5%), diisopropyl naphthalene isomers (40-60%), 2,5-diphenyloxazole (≦2.5%), and 9,10-dimethylanthracene] was added and mixed well. After 30 minutes of incubation, the samples were analyzed with a MicroBeta® Trilux microplate liquid scintillation counter and luminometer (Perkin-Elmer).

| SMILES | IC50 |
| --- | --- |
| CCC(c1cccc(-c2ccc(OC)cc2)n1)n1ccnc1 (centres unmarked) [Example 38, 2-(1-Imidazol-1-yl-propyl)-6-(4-methoxy-phenyl) pyridine] | < 50 nM |
| COc1ccc(-c2ccc(C(CC(C)C)n3ccnc3)s2)cc1 (centres unmarked) [Example 39, 1-{1-[5-(4-Methoxy-phenyl)-thiophen-2-yl]-3-methyl-butyl}-1H-imidazole] | < 50 nM |
| CC(c1ccc(-c2ccccc2F)cn1)n1ccnc1 (centres unmarked) [Example 40, 5-(2-Fluoro-phenyl)-2-(1-imidazol-1-yl-ethyl)-pyridine] | < 50 nM |
| CCC(c1ccc(-c2ccc(CO)cc2)cn1)n1ccnc1 (centres unmarked) [Example 41, {4-[6-(1-Imidazol-1-yl-propyl)-pyridin-3-yl]-phenyl}-methanol] | < 50 nM |
| COc1ccc(-c2cccc(C(C)n3ccnc3)n2)cc1 (centres unmarked) [Example 42, 2-(1-Imidazol-1-yl-ethyl)-6-(4-methoxy-phenyl)-pyridine] | < 50 nM |
| CCC(c1ccc(-c2ccc(NC(C)=O)cc2)cn1)n1ccnc1 (centres unmarked) [Example 43, N-{4-[6-(1-Imidazol-1-yl-propyl)-pyridin-3-yl]-phenyl}-acetamide] | < 50 nM |
| CCC(c1cnc(-c2cn[nH]c2)s1)n1ccnc1 (centres unmarked) [Example 44, 5-(1-Imidazol-1-yl-propyl)-2-(1H-pyrazol-4-yl)-thiazole] | < 50 nM |
| CCC(c1ccc(-c2cccc(F)c2)cn1)n1ccnc1 (centres unmarked) [Example 45, 5-(3-Fluoro-phenyl)-2-(1-imidazol-1-yl-propyl)-pyridine] | < 50 nM |
| CCc1cc(F)ccc1-c1ncc(C(CC)n2ccnc2)s1 (centres unmarked) [Example 46, 2-(2-Ethyl-4-fluoro-phenyl)-5-(1-imidazol-1-yl-propyl)-thiazole] | < 50 nM |
| CCC(c1ccc(-c2ccc(OC)cc2)cn1)n1ccnc1 (centres unmarked) [Example 47, 2-(1-Imidazol-1-yl-propyl)-5-(4-methoxy-phenyl)-pyridine] | < 50 nM |
| CCC(c1ccc(-c2ccccc2F)cn1)n1ccnc1 (centres unmarked) [Example 48, 5-(2-Fluoro-phenyl)-2-(1-imidazol-1-yl-propyl)-pyridine] | < 50 nM |
| CC(c1ccc(-c2ccc(O)cc2)s1)n1ccnc1 (centres unmarked) [Example 49, 4-[5-(1-Imidazol-1-yl-ethyl)-thiophen-2-yl]-phenol] | < 50 nM |
| CCC(c1ccc(-c2ccc(O)cc2)cn1)n1ccnc1 (centres unmarked) [Example 50, 4-[6-(1-Imidazol-1-yl-propyl)-pyridin-3-yl]-phenol] | < 50 nM |
| CCC(c1cnc(-c2ccc(OC)nc2)s1)n1ccnc1 (centres unmarked) [Example 51, 5-[5-(1-Imidazol-1-yl-propyl)-thiazol-2-yl]-2-methoxy-pyridine] | < 50 nM |
| CC(C)(c1ccc(-c2ccc(O)cc2)cn1)n1ccnc1 [Example 52, 4-[6-(1-Imidazol-1-yl-1-methyl-ethyl)-pyridin-3-yl]-phenol] | < 50 nM |

Now from value to compound:

| IC50 | SMILES |
| --- | --- |
| < 50 nM | CCC(c1ccc(-c2cccc(C#N)c2)cn1)n1ccnc1 (centres unmarked) [Example 53, 3-[6-(1-Imidazol-1-yl-propyl)-pyridin-3-yl]-benzonitrile] |
| < 50 nM | CC(c1ccc(-c2ccc(F)cc2)nc1)n1ccnc1 (centres unmarked) [Example 54, 2-(4-Fluoro-phenyl)-5-(1-imidazol-1-yl-ethyl)-pyridine] |
| < 50 nM | CCOC(=O)c1ccc(-c2ncc(C(C)n3ccnc3)s2)cc1 (centres unmarked) [Example 55, 4-[5-(1-Imidazol-1-yl-ethyl)-thiazol-2-yl]-benzoic acid ethyl ester] |
| < 50 nM | CCC(c1ccc(-c2ccccc2OC)cn1)n1ccnc1 (centres unmarked) [Example 56, 2-(1-Imidazol-1-yl-propyl)-5-(2-methoxy-phenyl)-pyridine] |
| < 50 nM | CC(c1ccc(-c2cccc(F)c2)cn1)n1ccnc1 (centres unmarked) [Example 57, 5-(3-Fluoro-phenyl)-2-(1-imidazol-1-yl-ethyl)-pyridine] |
| 50 to 200 nM | COc1ccc(-c2ncc(C(C)n3ccnc3)s2)cn1 (centres unmarked) [Example 58, 5-[5-(1-Imidazol-1-yl-ethyl)-thiazol-2-yl]-2-methoxy-pyridine] |
| 50 to 200 nM | CCC(c1cnc(-c2ccc(=O)[nH]c2)s1)n1ccnc1 (centres unmarked) [Example 59, 5-[5-(1-Imidazol-1-yl-propyl)-thiazol-2-yl]-1H-pyridin-2-one] |
| 50 to 200 nM | CCC(c1cnc(-c2ccc(O)cc2)s1)n1ccnc1 (centres unmarked) [Example 60, 4-[5-(1-Imidazol-1-yl-propyl)-thiazol-2-yl]-phenol] |
| 50 to 200 nM | COc1ccc(-c2ccc(C(C)(C)n3ccnc3)nc2)cc1 [Example 61, 2-(1-Imidazol-1-yl-1-methyl-ethyl)-5-(4-methoxy-phenyl)-pyridine] |
| 50 to 200 nM | COc1ccc(-c2ccc(C(CC(C)C)n3ccnc3)nc2)cc1 (centres unmarked) [Example 62, 2-(1-Imidazol-1-yl-3-methyl-butyl)-5-(4-methoxy-phenyl)-pyridine] |
| 201 to 10000 nM | CC(c1cnc(-c2ccc(=O)[nH]c2)s1)n1ccnc1 (centres unmarked) [Example 63, 5-[5-(1-Imidazol-1-yl-ethyl)-thiazol-2-yl]-1H-pyridin-2-one] |
| 201 to 10000 nM | CC(=O)Nc1ccc(-c2ccc(C(C)n3ccnc3)nc2)cc1 (centres unmarked) [Example 64, N-{4-[6-(1-Imidazol-1-yl-ethyl)-pyridin-3-yl]-phenyl}-acetamide] |
| 201 to 10000 nM | CC(c1cnc(-c2ccc(C(=O)O)cc2)s1)n1ccnc1 (centres unmarked) [Example 65, 4-[5-(1-Imidazol-1-yl-ethyl)-thiazol-2-yl]-benzoic acid] |
| 50 to 200 nM | COc1ccc(-c2cccnc2C(C)n2ccnc2)cc1 (centres unmarked) [Example 66, 2-(1-(1H-imidazol-1-yl)ethyl)-3-(4-methoxyphenyl)-pyridine] |
